This note sets out measurements from ChEMBL document CHEMBL1201862, “PubChem BioAssay data set” (2004).

A word on the AC50: it is the concentration giving half of the maximal activity seen. By CC50 is commonly meant the concentration giving 50% cytotoxicity. As usually defined, the EC50 is the concentration that produces a half-maximal response.

The source made the active and inactive calls. A value given as a limit tells only on which side of the number the result lay.

In assay [1] the target is 26S proteasome non-ATPase regulatory subunit 14 (Homo sapiens, UniProt O00487). Description: inhibition of proteasome subunit RPN11 – biochemical, fluorescence polarization, uHTS hits, confirmation (AID 602368). Format: functional.
Assay [2] addresses 72 kDa type IV collagenase (Homo sapiens, UniProt P08253). Description: Dose Response validation of uHTS RPN11 inhibitor hits using a MMP-2 Fluorescence assay. Format: functional.
The target in another assay is Prothrombin (Bos taurus, UniProt P00735). Description: thrombin inhibition, dose response, biochemical, fluorescence polarization, uHTS hits (AID 602369). The assay is classed as functional. On the technique in general: In fluorescence polarisation assays a small probe gives low polarisation when free and higher when bound to something large.
The target in assay [3] is T1, Long-chain-fatty-acid--AMP ligase FadD28 (Mycobacterium tuberculosis, UniProt P9WQ59).
T1 sequence (P9WQ59 whole entry): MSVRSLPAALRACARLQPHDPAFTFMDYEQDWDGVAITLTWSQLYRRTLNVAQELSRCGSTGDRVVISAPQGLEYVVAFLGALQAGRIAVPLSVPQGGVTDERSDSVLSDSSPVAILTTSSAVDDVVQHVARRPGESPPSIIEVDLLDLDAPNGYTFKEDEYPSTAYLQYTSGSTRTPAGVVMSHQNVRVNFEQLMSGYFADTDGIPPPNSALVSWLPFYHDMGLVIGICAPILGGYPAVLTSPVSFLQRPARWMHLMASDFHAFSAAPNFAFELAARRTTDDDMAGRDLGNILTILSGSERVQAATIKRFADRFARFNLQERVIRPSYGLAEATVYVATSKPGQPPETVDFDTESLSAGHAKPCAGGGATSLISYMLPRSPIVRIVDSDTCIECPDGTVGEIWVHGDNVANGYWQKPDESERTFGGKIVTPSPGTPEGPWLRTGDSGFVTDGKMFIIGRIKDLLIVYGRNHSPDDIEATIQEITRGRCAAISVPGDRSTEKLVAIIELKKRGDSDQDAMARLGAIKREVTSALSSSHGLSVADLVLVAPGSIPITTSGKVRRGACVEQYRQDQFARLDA
Description: Fluorescence polarization aasay to screen for inhibitors that compete for the binding of FadD28 to a bisubstrate Measured in Biochemical System Using Plate Reader - 2147-01_Inhibitor_Dose_CherryPick_Activity. Format: functional, Mycobacterium tuberculosis H37Rv.

In the next assay the target is Protein Wnt-3a (Mus musculus, UniProt P27467). Description: Wnt3a-driven reporter signaling inhibition, dose response, selectivity assay for Gli-SUFU antagonist project, Wnt-LIGHT cells, luminescence (AID 651570).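 Further: Wnt-LIGHT reporter cells stimulated with conditioned medium from Wnt3a-producing cells.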 The assay is classed as functional. As to conditions: read-out: IC50_Mean.
A short description of assay [4]: HEp-2 cell cytotoxicity, dose response, cytotoxicity control for RSV inhibitor project, HTS (AID 2410). Format: functional. Particulars: human respiratory syncytial virus.
The nature of assay [5]: inhibitors of firefly luciferase expression or activity, dose response, H4 neuroglioma cells, luminescence (AID 1990). The assay is classed as functional, cell-based.
The nature of assay [6]: Luminescence Cell-Based Dose Response HTS to Identify Inhibitors of 5'UTR Stem-Loop Driven Prion Protein mRNA Translation in H4 Neuroglioblastoma Cells. [Related pubchem assays: 1827 (Project Summary), 1813 (Primary HTS)]. The assay is classed as functional.
The nature of assay [7]: inhibitors of SNCA 5'UTR-driven reporter translation, confirmation, H4 neuroglioma cells, luminescence (AID 1988). The assay is classed as functional, cell-based.
Assay [8] is described as follows: inhibitors of intracellular T. cruzi replication, confirmation, NIH3T3 host cells, beta-gal luminescence (AID 2044).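 Further: intracellular parasites grown in NIH/3T3 mouse fibroblasts as host cells; luminescent beta-galactosidase reporter signal from transgenic T. cruzi replicating inside host cells; inhibitors lower the luminescence signal.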 Format: functional, cell-based.
Assay [9] is described as follows: cytotoxicity toward NIH3T3 fibroblasts, dose response, counter-screen, cell-based, ATP luminescence, mouse fibroblasts (AID 2010).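 Further: cells exposed to compound for about 90 hours before reading.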 The assay is classed as functional. (In general: Counterscreens check selectivity or assay interference.)
The next assay deals with T2, Cysteine protease ATG4B (Homo sapiens, UniProt Q9Y4P1).
T2 sequence (Q9Y4P1 whole entry): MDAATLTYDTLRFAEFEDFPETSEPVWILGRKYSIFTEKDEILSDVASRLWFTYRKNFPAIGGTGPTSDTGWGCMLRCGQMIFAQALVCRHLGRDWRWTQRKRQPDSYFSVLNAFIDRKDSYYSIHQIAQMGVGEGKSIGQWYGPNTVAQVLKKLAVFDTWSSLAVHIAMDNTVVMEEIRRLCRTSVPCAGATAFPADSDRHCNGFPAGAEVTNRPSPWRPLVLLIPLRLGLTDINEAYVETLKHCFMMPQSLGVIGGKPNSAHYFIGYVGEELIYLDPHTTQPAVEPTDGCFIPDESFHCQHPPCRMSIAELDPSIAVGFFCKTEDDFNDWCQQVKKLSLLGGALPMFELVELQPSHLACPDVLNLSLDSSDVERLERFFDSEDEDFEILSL
The assay is classed as functional.

The next assay has as its target Phospholipase A2 (Homo sapiens, UniProt P04054). The assay is classed as functional.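 Further: confirmatory dose-response counterscreen on phospholipase A2, testing hits that came from an ultra-high-throughput screen for ATG4B inhibitors.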
The test system of the next assay is Vero. Description: cells. The assay is classed as functional, cell-based. Particulars: Chlorocebus sabaeus.
The target in a further assay is Melanocortin receptor 4 (Homo sapiens, UniProt P32245). Format: functional, cell-based.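 Further: Cell-based assay with luminescence read-out, confirmatory dose-response testing for agonist activity of biased ligands at MC4R; human U2OS cells with tagged receptor and beta-arrestin; potency of agonists that increase receptor coupling to beta-arrestin.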
Sequence of Melanocortin receptor 4 (P32245 whole entry): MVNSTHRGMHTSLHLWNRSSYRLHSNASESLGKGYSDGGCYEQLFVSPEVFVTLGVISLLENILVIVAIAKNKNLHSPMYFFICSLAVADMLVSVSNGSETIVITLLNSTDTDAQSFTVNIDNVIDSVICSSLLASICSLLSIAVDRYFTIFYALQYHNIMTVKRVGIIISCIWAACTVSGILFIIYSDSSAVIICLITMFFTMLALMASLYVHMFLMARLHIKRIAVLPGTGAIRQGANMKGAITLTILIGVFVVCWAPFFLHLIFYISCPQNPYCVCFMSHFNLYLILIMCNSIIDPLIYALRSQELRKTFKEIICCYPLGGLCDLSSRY

Sequence of 72 kDa type IV collagenase (P08253 whole entry): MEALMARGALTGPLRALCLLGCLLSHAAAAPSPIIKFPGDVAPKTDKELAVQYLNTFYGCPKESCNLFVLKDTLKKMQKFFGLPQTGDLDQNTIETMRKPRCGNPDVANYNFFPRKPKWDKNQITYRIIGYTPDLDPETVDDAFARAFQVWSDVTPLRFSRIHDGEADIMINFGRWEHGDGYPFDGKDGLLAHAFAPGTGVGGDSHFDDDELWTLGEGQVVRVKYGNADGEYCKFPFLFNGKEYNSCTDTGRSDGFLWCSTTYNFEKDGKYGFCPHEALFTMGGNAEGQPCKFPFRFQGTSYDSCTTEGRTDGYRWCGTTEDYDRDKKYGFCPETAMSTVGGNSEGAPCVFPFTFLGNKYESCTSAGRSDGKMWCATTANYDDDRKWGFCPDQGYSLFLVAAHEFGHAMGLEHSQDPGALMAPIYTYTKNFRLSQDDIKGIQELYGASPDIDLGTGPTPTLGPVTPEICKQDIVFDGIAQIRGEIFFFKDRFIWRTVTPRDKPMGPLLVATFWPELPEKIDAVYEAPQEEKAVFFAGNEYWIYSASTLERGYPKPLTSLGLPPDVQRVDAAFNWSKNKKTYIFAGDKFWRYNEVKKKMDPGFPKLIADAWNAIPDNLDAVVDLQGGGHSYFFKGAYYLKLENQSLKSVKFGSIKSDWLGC
Sequence of Phospholipase A2 (P04054 whole entry): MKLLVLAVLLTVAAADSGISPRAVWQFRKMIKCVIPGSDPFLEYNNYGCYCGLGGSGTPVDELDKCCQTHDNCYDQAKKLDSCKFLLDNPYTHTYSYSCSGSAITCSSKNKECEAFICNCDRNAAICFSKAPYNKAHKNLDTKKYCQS
Sequence of Protein Wnt-3a (P27467 whole entry): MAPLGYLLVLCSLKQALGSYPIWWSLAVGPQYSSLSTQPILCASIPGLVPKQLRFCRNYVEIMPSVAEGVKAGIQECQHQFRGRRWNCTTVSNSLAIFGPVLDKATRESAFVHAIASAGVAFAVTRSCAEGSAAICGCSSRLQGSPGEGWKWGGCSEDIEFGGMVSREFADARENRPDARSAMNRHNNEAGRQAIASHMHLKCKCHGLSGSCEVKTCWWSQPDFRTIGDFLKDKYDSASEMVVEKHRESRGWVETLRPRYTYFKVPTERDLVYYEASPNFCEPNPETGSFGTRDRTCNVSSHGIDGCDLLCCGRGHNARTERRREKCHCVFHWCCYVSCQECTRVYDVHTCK
Sequence of 26S proteasome non-ATPase regulatory subunit 14 (O00487 whole entry): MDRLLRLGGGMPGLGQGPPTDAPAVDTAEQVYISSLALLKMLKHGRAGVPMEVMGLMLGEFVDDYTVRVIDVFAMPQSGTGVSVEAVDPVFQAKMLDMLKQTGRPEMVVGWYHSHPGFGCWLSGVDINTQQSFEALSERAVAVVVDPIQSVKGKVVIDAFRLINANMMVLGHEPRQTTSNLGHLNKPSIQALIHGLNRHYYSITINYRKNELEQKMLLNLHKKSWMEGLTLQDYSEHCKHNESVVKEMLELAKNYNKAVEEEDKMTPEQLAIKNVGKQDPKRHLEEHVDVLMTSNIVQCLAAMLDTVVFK

For the molecule `Cc1ccc(C(=O)Nc2ccc(C(=O)N/N=C/c3cccnc3)cc2)cc1`, the figures for the IC50 (in assay [1]; in assay [2]; on Prothrombin) were 30.5 µM (active), > 100 µM (inactive) and > 100 µM (inactive), respectively.
Consider `Cc1cccc(NC(=O)CN2C(=O)N/C(=C/c3cc(C)n(-c4ccncc4)c3C)C2=O)c1`, for which, in assay [3], the AC50 was 18.7 µM (active).
Same read-out and setting: to `O=C(CNC(=O)c1ccc([N+](=O)[O-])cc1)N/N=C/c1c[nH]c2ccccc12` belongs 30.2 µM (active); to `COc1ccc(-c2nnn(CC(=O)c3c[nH]c4ccccc34)n2)cc1OC`, > 100 µM (inactive).
For `N=c1c(-c2nc3ccccc3[nH]2)cc(C(=O)c2ccco2)nn1-c1ccccc1`, the IC50 on Protein Wnt-3a is 16.8 µM (active).
As to `Fc1ccc(C2c3[nH]c4ccccc4c3CCN2Cc2cccn2-c2ncccn2)cc1` (stereo not drawn), in assay [4], the CC50 was 24 µM (active). In addition, the EC50 in assay [5] was 14.6 µM (active); in [6], 13.1 µM (active); in assay [7] it was > 120 µM (not active); in assay [8] it was 1.7 µM (active); in [9] it was > 60 µM (not active). Further, the IC50 on Cysteine protease ATG4B was 17.1 µM (active); on Phospholipase A2 it was 15.5 µM (active); in the assay on Vero it was > 25 µM (active); in “cells”, 8.94 µM (active).
`FC(F)(F)c1cccnc1Oc1ccc(C2=NCCS2)cc1`: the EC50 on Melanocortin receptor 4 was > 89.1 µM (inactive).
